For data set [1] the following is noted: cited from earlier work.
The nature of data set [2]: Storage stability of ready-to-use micafungin sodium solution in vials at 2-8° C. (purity and impurities by RRT). The format is physicochemical. Particulars: API (drug substance used). On the procedure: As used herein, “relative retention time” (“RRT”) is calculated by dividing the retention time of the peak of interest by the retention time of the main peak. Any peak with an RRT<1 elutes before the main peak, and any peak with an RRT>1 elutes after the main peak. […]

Several values for one entry are separate records, joined by “and”; a condition that tells them apart may be missing. Identical values can stand only once. Like-named read-outs stand apart in the source and are kept apart here. Starred links: 1 amine or outer side, 2 acyl side, 3 side chain; linkers in the order of their positions; H or OH if unused. Positions of bridges follow the written chain, without caps; N, C: chain ends. Non-standard residues stand in square brackets, D forms with d. Residues, ends and D or L forms follow the SMILES beside them. *: point of attachment. hTyr(3S-OH,4S-OH,3'-OSO3H) = N[C@H](C(=O)O)[C@H](O)[C@@H](O)c1ccc(O)c(OS(=O)(=O)O)c1; Orn(4R-OH,5R-OH) = O=C([C@H](C[C@@H](O)[C@@H](O)N[*:3])N[*:1])[*:2]; Pro(3S-OH,4S-Me) = C[C@H]1CN[C@H](C(=O)O)[C@H]1O; X1 = CCCCCOc1ccc(-c2cc(-c3ccc(C(=O)*)cc3)no2)cc1; Gln(3R-OH) = NC(=O)C[C@@H](O)[C@H](N)C(=O)O; Hyp = O=C(O)[C@@H]1C[C@@H](O)CN1

As for `CCCCCOc1ccc(-c2cc(-c3ccc(C(=O)N[C@H]4C[C@@H](O)[C@@H](O)NC(=O)[C@@H]5[C@@H](O)[C@@H](C)CN5C(=O)[C@H]([C@H](O)CC(N)=O)NC(=O)[C@H]([C@H](O)[C@@H](O)c5ccc(O)c(OS(=O)(=O)O)c5)NC(=O)[C@@H]5C[C@@H](O)CN5C(=O)[C@H]([C@@H](C)O)NC4=O)cc3)no2)cc1` [Micafungin sodium, {5-[(1S,2S)-2-[(3S,6S,9S,11R,15S,18S,20R,21R,24S,25S,26S)-3-[(1R)-2-carbamoyl-1-hydroxyethyl]-11,20,21,25-tetrahydroxy-15-[(1R)-1-hydroxyethyl]-26-methyl-2,5,8,14,17,23-hexaoxo-18-[(4-{5-[4-(pentyloxy)phenyl]-1,2-oxazol-3-yl)benzene)amido]-1,4,7,13,16,22-hexaazatricyclo[22.3.0.0.0^9,13]heptacosan-6-yl]-1,2-dihydroxyethyl]-2-hydroxyphenyl} oxidanesulfonic acid] (X1-[Orn(4R-OH,5R-OH)]T[Hyp][hTyr(3S-OH,4S-OH,3'-OSO3H)][Gln(3R-OH)][Pro(3S-OH,4S-Me)]; lactam 1-C), the Solubility entry in data set [1] (N,N-dimethylformamide) is given as “freely soluble”; in data set [1] (acetone) it was “practically insoluble”; in data set [1] (acetonitrile) it was “practically insoluble”; in data set [1] (diethyl ether) it was “practically insoluble”; in data set [1] (dimethylsulfoxide), “freely soluble”; in data set [1] (ethyl alcohol (95%)) it was “practically insoluble”. Further, the Solubility result is reported as “freely soluble” in data set [1] (isotonic sodium chloride solution), “slightly soluble” in data set [1] (methyl alcohol), “practically insoluble” in data set [1] (n-hexane) and “freely soluble” in data set [1] (water). The “Imp at RRT 1.02” value in data set [2] is 0.24. The “Imp at RRT 0.93” value in data set [2] (listed as API) is 0.64 and 0.58. The “Imp. E” value in data set [2] (listed as API) is 0.01 and 0.02. Further, the Purity in data set [2] (listed as API) is 99.25 and 98.97.
